# Patent publication US6720331B2, “1-substituted 1,2,3,4-tetrahydro-β-carboline and 3,4-dihydro-β-carboline and analogs as antitumor agents” (National Sun Yat-sen University, priority 2001, dated 2004)
# Where two headings read alike, the source gives them in different places.
# Legend:
# P-388 (murine leukemia) = experiment: Growth inhibition of tumor cell line P-388 (Table 1); format: cell-based; conditions: for IC50: Mus musculus, P388, 72 h, read-out: IC50, concentration inhibiting 50% of the growth of P-388
# [1] = system: KB-16 (human nasopharyngeal carcinoma); experiment: Growth inhibition of tumor cell line KB-16 (Table 1); format: cell-based; conditions: for IC50: Homo sapiens, KB16, 72 h, read-out: IC50, concentration inhibiting 50% of the growth of KB-16
# [2] = system: A-549 (human lung adenocarcinoma); experiment: Growth inhibition of tumor cell line A-549 (Table 1); format: cell-based; conditions: for IC50: Homo sapiens, A549, 144 h, read-out: IC50, concentration inhibiting 50% of the growth of A-549
# [3] = system: HT-29 (human colon adenocarcinoma); experiment: Growth inhibition of tumor cell line HT-29 (Table 1); format: cell-based; conditions: for IC50: Homo sapiens, HT-29, 144 h, read-out: IC50, concentration inhibiting 50% of the growth of HT-29
# murine P-388 cells = conditions: Sakai et al., J Am Chem Soc 1986; cited from earlier work
# [4] = 3 day drug exposure, columns A/B = scaffold type
# [5] = 6 day drug exposure, columns A/B = scaffold type
Compound,IC50 (P-388 (murine leukemia); [4]),"IC50 [1, 4]","IC50 [2, 5]","IC50 [3, 5]",other results
"1-(2′-Fluorenyl)-3,4-dihydro-β-carboline [Compound 28]",,,,,"IC50, concentration inhibiting 50% of the growth of P-388 (P-388 (murine leukemia); [4]): 0.1 mg/L; IC50, concentration inhibiting 50% of the growth of KB-16 [1, 4]: 1.4 mg/L; IC50, concentration inhibiting 50% of the growth of A-549 [2, 5]: 0.6 mg/L; IC50, concentration inhibiting 50% of the growth of HT-29 [3, 5]: 0.7 mg/L"
"1-(3′-Nitro-4′-Benzo-1″,3″-dioxole)-3,4-dihydro-β-carboline [Compound 27]",,,,,"IC50, concentration inhibiting 50% of the growth of P-388 (P-388 (murine leukemia); [4]): 0.3 mg/L; IC50, concentration inhibiting 50% of the growth of KB-16 [1, 4]: 0.8 mg/L; IC50, concentration inhibiting 50% of the growth of A-549 [2, 5]: 0.6 mg/L; IC50, concentration inhibiting 50% of the growth of HT-29 [3, 5]: 1.0 mg/L"
"O[C@]12C=C(c3nccc4c3[nH]c3ccccc34)[C@@H]3CCN(CCCC/C=C\CC1)C[C@@]31C[C@@H]3/C=C\CCCCN3[C@@H]12 [Compound 3, manzamine A, reference compound]",,,,,IC50 (P-388 (murine leukemia)): 0.07 mg/L; IC50 [1]: < 0.001 mg/L; IC50 [2]: 0.03 mg/L; IC50 [3]: 0.1 mg/L; cytotoxicity against murine P-388 cells (murine P-388 cells): 0.07 µg/mL
"Clc1ccc(C2NCCc3c2[nH]c2ccccc32)cc1 (stereo not drawn) [Compound 4, 1-(4′-Chlorophenyl)-1,2,3,4-tetrahydro-β-carboline]",0.2 mg/L,0.7 mg/L,0.6 mg/L,0.9 mg/L,
"Brc1ccc(C2NCCc3c2[nH]c2ccccc32)cc1 (stereo not drawn) [Compound 5, 1-(4′-Bromophenyl)-1,2,3,4-tetrahydro-β-carboline]",1 mg/L,2.1 mg/L,3 mg/L,1.1 mg/L,
"O=[N+]([O-])c1ccc(C2NCCc3c2[nH]c2ccccc32)cc1 (stereo not drawn) [Compound 6, 1-(4′-Nitrophenyl)-1,2,3,4-tetrahydro-β-carboline]",0.8 mg/L,1.1 mg/L,0.9 mg/L,1.5 mg/L,
"CN(C)c1ccc(C2NCCc3c2[nH]c2ccccc32)cc1 (stereo not drawn) [Compound 7, 1-(4′-Dimethylaminophenyl)-1,2,3,4-tetrahydro-β-carboline]",2.2 mg/L,1.7 mg/L,1.6 mg/L,0.7 mg/L,
"CCN(CC)c1ccc(C2NCCc3c2[nH]c2ccccc32)cc1 (stereo not drawn) [Compound 8, 1-(4′-N-Diethylaminophenyl)-1,2,3,4-tetrahydro-β-carboline]",,,,,"IC50, concentration inhibiting 50% of the growth of P-388 (P-388 (murine leukemia); [4]): 0.07 mg/L; IC50, concentration inhibiting 50% of the growth of KB-16 [1, 4]: 0.2 mg/L; IC50, concentration inhibiting 50% of the growth of A-549 [2, 5]: 1.1 mg/L; IC50, concentration inhibiting 50% of the growth of HT-29 [3, 5]: 1.1 mg/L"
"COc1ccc(C2NCCc3c2[nH]c2ccccc32)c(OC)c1 (stereo not drawn) [Compound 9, 1-(2′,4′-Dimethoxyphenyl)-1,2,3,4-tetrahydro-β-carboline]",0.6 mg/L,0.7 mg/L,1.1 mg/L,1.1 mg/L,
"COc1ccc(C2NCCc3c2[nH]c2ccccc32)cc1OC (stereo not drawn) [Compound 10, 1-(3′,4′-Dimethoxyphenyl)-1,2,3,4-tetrahydro-β-carboline]",2.8 mg/L,> 50 mg/L,> 50 mg/L,> 50 mg/L,
"COc1ccc(OC)c(C2NCCc3c2[nH]c2ccccc32)c1 (stereo not drawn) [Compound 11, 1-(2′,5′-Dimethoxyphenyl)-1,2,3,4-tetrahydro-β-carboline]",2.6 mg/L,3.7 mg/L,2 mg/L,2.2 mg/L,
"COc1cc(OC)cc(C2NCCc3c2[nH]c2ccccc32)c1 (stereo not drawn) [Compound 12, 1-(3′,5′-Dimethoxyphenyl)-1,2,3,4-tetrahydro-β-carboline]",0.2 mg/L,1.4 mg/L,0.6 mg/L,0.4 mg/L,
"COc1cc(C2NCCc3c2[nH]c2ccccc32)cc(OC)c1OC (stereo not drawn) [Compound 13, 1-(3′,4′,5′-Trimethoxyphenyl)-1,2,3,4-tetrahydro-β-carboline]",1.2 mg/L,8.3 mg/L,2 mg/L,1.6 mg/L,
"O=[N+]([O-])c1cc(C2NCCc3c2[nH]c2ccccc32)cc2c1OCO2 (stereo not drawn) [Compound 14, 1-(3′-Nitroz4′-Benzo-1″,3″-dioxole)-1,2,3,4-tetrahydro-β-carboline]",,,,,"IC50, concentration inhibiting 50% of the growth of P-388 (P-388 (murine leukemia); [4]): 0.3 mg/L; IC50, concentration inhibiting 50% of the growth of KB-16 [1, 4]: 6.0 mg/L; IC50, concentration inhibiting 50% of the growth of A-549 [2, 5]: 1.7 mg/L; IC50, concentration inhibiting 50% of the growth of HT-29 [3, 5]: 1.4 mg/L"
"c1ccc2c(c1)Cc1cc(C3NCCc4c3[nH]c3ccccc43)ccc1-2 (stereo not drawn) [Compound 15, 1-(2′-Fluorenyl)-1,2,3,4-tetrahydro-β-carboline]",,,,,"IC50, concentration inhibiting 50% of the growth of P-388 (P-388 (murine leukemia); [4]): 0.1 mg/L; IC50, concentration inhibiting 50% of the growth of KB-16 [1, 4]: 0.4 mg/L; IC50, concentration inhibiting 50% of the growth of A-549 [2, 5]: 0.6 mg/L; IC50, concentration inhibiting 50% of the growth of HT-29 [3, 5]: 0.5 mg/L"
"CCn1c2ccccc2c2cc(C3NCCc4c3[nH]c3ccccc43)ccc21 (stereo not drawn) [Compound 16, 1-(9′-Ethyl-3′-carbazole)-1,2,3,4-tetrahydro-β-carboline]",,,,,"IC50, concentration inhibiting 50% of the growth of P-388 (P-388 (murine leukemia); [4]): 0.7 mg/L; IC50, concentration inhibiting 50% of the growth of KB-16 [1, 4]: 0.8 mg/L; IC50, concentration inhibiting 50% of the growth of A-549 [2, 5]: 0.8 mg/L; IC50, concentration inhibiting 50% of the growth of HT-29 [3, 5]: 0.5 mg/L"
"CN(C)c1ccc(C2=NCCc3c2[nH]c2ccccc32)cc1 [Compound 20, 1-(4′-Dimethylaminophenyl)-3,4-dihydro-β-carboline]",2.9 mg/L,4.8 mg/L,50 mg/L,3 mg/L,
"CCN(CC)c1ccc(C2=NCCc3c2[nH]c2ccccc32)cc1 [Compound 21, 1-(4′-Diethylaminophenyl)-3,4-dihydro-β-carboline]",0.7 mg/L,0.3 mg/L,1.8 mg/L,1.3 mg/L,
"COc1ccc(C2=NCCc3c2[nH]c2ccccc32)c(OC)c1 [Compound 22, 1-(2′,4′-Dimethoxyphenyl)-3,4-dihydro-β-carboline]",0.6 mg/L,2.7 mg/L,0.5 mg/L,0.5 mg/L,
"COc1ccc(C2=NCCc3c2[nH]c2ccccc32)cc1OC [Compound 23, 1-(3′,4′-Dimethoxyphenyl)-3,4-dihydro-β-carboline]",2.7 mg/L,15 mg/L,12 mg/L,2.7 mg/L,
"COc1ccc(OC)c(C2=NCCc3c2[nH]c2ccccc32)c1 [Compound 24, 1-(2′,5′-Dimethoxyphenyl)-3,4-dihydro-β-carboline]",1.1 mg/L,0.7 mg/L,0.2 mg/L,0.4 mg/L,
"COc1cc(OC)cc(C2=NCCc3c2[nH]c2ccccc32)c1 [Compound 25, 1-(3′,5′-Dimethoxyphenyl)-3,4-dihydro-β-carboline]",0.4 mg/L,1 mg/L,0.6 mg/L,0.6 mg/L,
"COc1cc(C2=NCCc3c2[nH]c2ccccc32)cc(OC)c1OC [Compound 26, 1-(3′,4′,5′-Trimethoxyphenyl)-3,4-dihydro-β-carboline]",1.2 mg/L,1.4 mg/L,0.5 mg/L,0.7 mg/L,
"CC(=O)O[C@H]1C(=O)[C@@]2(C)[C@H]([C@H](OC(=O)c3ccccc3)[C@]3(O)C[C@H](OC(=O)[C@H](O)[C@@H](NC(=O)c4ccccc4)c4ccccc4)C(C)=C1C3(C)C)[C@]1(OC(C)=O)CO[C@@H]1C[C@@H]2O [Compound 30, paclitaxel, reference compound]",< 0.001 mg/L,< 0.001 mg/L,< 0.001 mg/L,< 0.001 mg/L,
